Format in all cases: cell-based
In one assay the target is T1, ERα (Homo sapiens, UniProt P03372).
T1 construct: degrading an ERα in MCF-7 cells via a western blot; endogenous in cells; host or cells: MCF-7
T1 sequence (P03372 1-595): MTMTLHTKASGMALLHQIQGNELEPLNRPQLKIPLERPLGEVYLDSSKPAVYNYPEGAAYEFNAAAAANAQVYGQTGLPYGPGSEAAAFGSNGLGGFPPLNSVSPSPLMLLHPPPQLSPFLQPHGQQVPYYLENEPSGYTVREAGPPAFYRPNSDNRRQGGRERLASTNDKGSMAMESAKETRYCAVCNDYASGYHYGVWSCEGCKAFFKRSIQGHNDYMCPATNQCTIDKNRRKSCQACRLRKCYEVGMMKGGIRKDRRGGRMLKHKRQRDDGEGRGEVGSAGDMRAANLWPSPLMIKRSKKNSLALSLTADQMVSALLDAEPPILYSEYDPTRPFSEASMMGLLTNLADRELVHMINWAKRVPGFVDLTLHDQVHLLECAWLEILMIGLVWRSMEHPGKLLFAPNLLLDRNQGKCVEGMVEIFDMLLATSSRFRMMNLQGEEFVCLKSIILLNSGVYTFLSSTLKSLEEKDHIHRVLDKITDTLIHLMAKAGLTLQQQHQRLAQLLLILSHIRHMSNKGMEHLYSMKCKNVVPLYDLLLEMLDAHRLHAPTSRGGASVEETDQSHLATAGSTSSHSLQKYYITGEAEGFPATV
The assay can be described thus: Protein degradation assay: ERα in MCF-7 cells via western blot. Conditions: 6 h; for ERα Protein Degradation 1 nM: 1 nM compound; for ERα Protein Degradation 10 nM: 10 nM compound; for ERα Protein Degradation 100 nM: 100 nM compound. A digest of the protocol:
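MCF-7 cells in MEM/10% FBS with insulin, seeded 300,000/well, treated 6 h at set concentrations (e.g., 1 nM–1 μM). Whole-cell lysates immunoblotted for ERα with GAPDH loading control, chemiluminescent detection; percentage degradation reported in binned categories (≥50%, 25–50%, 10–25%, <10%).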
Background: In western blotting, separated proteins are transferred to a membrane and probed.

The next assay relates to MCF7 cells. The assay can be described thus: Cell viability assay ([…]-GLO, 6-day treatment). Conditions: Homo sapiens, MCF7, 144 h; MCF-7 cells, 6 days, CTG; read-out: Inhibition of Cancerous Cells IC50 MCF-7. The essentials:
(§1)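 MCF7 (MEM) and T47D (RPMI with insulin), both with 10% FBS, at 1,000 cells/well, treated with a 10-point compound dose series for 6 days, with medium and compound refreshed once. Viability read by CellTiter-Glo luminescence.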

For the next assay, the system named is T47D cells. The assay can be described thus: Cell viability assay ([…]-GLO, 6-day treatment). Conditions: Homo sapiens, 144 h, 6 days, CTG, read-out: Inhibition of Cancerous Cells IC50 T47D. A digest of the protocol:
as §1

What is called IC50 is the concentration needed to halve the response being measured. With `O=C1CCC(N2Cc3cc(N4CCN(CC5CCN(c6ccc(C7c8ccc(O)cc8CC[C@@H]7c7ccccc7)cc6)CC5)CC4)ccc3C2=O)C(=O)N1` (stereo in doubt) [Compound A16, (S)-3-(5-(4-((1-(4-((1R,2S)-6-Hydroxy-2-phenyl-1,2,3,4-tetrahydronaphthalen-1-yl)phenyl)piperidin-4-yl)methyl)piperazin-1-yl)-1-oxoisoindolin-2-yl)piperidine-2,6-dione], on ERα, the “ERα Protein Degradation 1 nM” value was “B (a percentage degradation value of less than 50% and no less than 25%)”; the “ERα Protein Degradation 10 nM” value is “A (a percentage degradation value of no less than 50%)”; the “ERα Protein Degradation 100 nM” value is “A (a percentage degradation value of no less than 50%)”. The IC50 with MCF7 cells was 0.68 nM. Besides, the IC50 in the assay on T47D cells was determined as 0.22 nM.
Turning to `O=C1CCN(c2ccc(OCC(=O)N3CCN(CCCCOc4ccc([C@@H]5c6ccc(O)cc6CC[C@@H]5c5ccccc5)cc4)CC3)cc2)C(=O)N1` [Compound B10, 1-(4-(2-(4-(4-(4-((1R,2S)-6-hydroxy-2-phenyl-1,2,3,4-tetrahydronaphthalen-1-yl)phenoxy)butyl)piperazin-1-yl)-2-oxoethoxy)phenyl)dihydropyrimidine-2,4(1H,3H)-dione], on ERα, the “ERα Protein Degradation 1 nM” value was “D (a percentage degradation value of less than 10%)”, the “ERα Protein Degradation 10 nM” value is “D (a percentage degradation value of less than 10%)” and the “ERα Protein Degradation 100 nM” value is reported as “D (a percentage degradation value of less than 10%)”. Moreover, in the assay with MCF7 cells, the IC50 was 1.6 nM. For the same compound, the IC50 in the assay with T47D cells turned out to be 0.76 nM.
As for `O=C1CCC(Nc2cccc(OCC(=O)N3CCN(CC4CCN(c5ccc([C@@H]6c7ccc(O)cc7CC[C@@H]6c6ccccc6)cc5)CC4)CC3)c2)C(=O)N1` (stereo partly drawn) [Compound B16, 3-((3-(2-(4-((1-(4-((1R,2S)-6-hydroxy-2-phenyl-1,2,3,4-tetrahydronaphthalen-1-yl)phenyl)piperidin-4-yl)methyl)piperazin-1-yl)-2-oxoethoxy)phenyl)amino)piperidine-2,6-dione], at ERα, the “ERα Protein Degradation 1 nM” value is “C (a percentage degradation value of less than 25% and no less than 10%)”; the “ERα Protein Degradation 10 nM” value is “C (a percentage degradation value of less than 25% and no less than 10%)”; the “ERα Protein Degradation 100 nM” value was “C (a percentage degradation value of less than 25% and no less than 10%)”. Further, the IC50 in the assay with MCF7 cells amounted to 5 nM. Moreover, the IC50 in the assay on T47D cells worked out at 2.6 nM.
For `O=C1CCC(Nc2cccc(N3CCN(CC4CCN(c5ccc([C@@H]6c7ccc(O)cc7CC[C@@H]6c6ccccc6)cc5)CC4)CC3)c2)C(=O)N1` (stereo partly drawn) [Compound B13, 3-((3-(4-((1-(4-((1R,2S)-6-hydroxy-2-phenyl-1,2,3,4-tetrahydronaphthalen-1-yl)phenyl)piperidin-4-yl)methyl)piperazin-1-yl)phenyl)amino)piperidine-2,6-dione], at ERα, the “ERα Protein Degradation 1 nM” value is given as “D (a percentage degradation value of less than 10%)”, the “ERα Protein Degradation 10 nM” value is reported as “D (a percentage degradation value of less than 10%)” and the “ERα Protein Degradation 100 nM” value is “D (a percentage degradation value of less than 10%)”. For the same compound, in the assay with MCF7 cells, the 50% inhibitory concentration (IC50) is 16 nM. Further, in the assay with T47D cells, the IC50 turned out to be 4.6 nM.
With `O=C1CCC(c2ccc(OCC(=O)N3CCN(CCCCOc4ccc([C@@H]5c6ccc(O)cc6CC[C@@H]5c5ccccc5)cc4)CC3)cc2)C(=O)N1` (stereo partly drawn) [Compound B6, 3-(4-(2-(4-(4-(4-((1R,2S)-6-hydroxy-2-phenyl-1,2,3,4-tetrahydronaphthalen-1-yl)phenoxy)butyl)piperazin-1-yl)-2-oxoethoxy)phenyl)piperidine-2,6-dione], at ERα, the “ERα Protein Degradation 1 nM” value is “C (a percentage degradation value of less than 25% and no less than 10%)”; the “ERα Protein Degradation 10 nM” value is “C (a percentage degradation value of less than 25% and no less than 10%)”; the “ERα Protein Degradation 100 nM” value was “C (a percentage degradation value of less than 25% and no less than 10%)”. In addition, the IC50 in the assay with MCF7 cells is 0.22 nM. Besides, the IC50 in the assay on T47D cells was determined as 0.18 nM.
As to `O=C1CCC(N2Cc3cc(C4CCN(CCCCCCOc5ccc([C@@H]6c7ccc(O)cc7CC[C@@H]6c6ccccc6)cc5)CC4)c(F)cc3C2=O)C(=O)N1` (stereo partly drawn) [Compound A5, 3-(6-Fluoro-5-(1-(6-(4-((1R,2S)-6-hydroxy-2-phenyl-1,2,3,4-tetrahydro-naphthalen-1-yl)phenoxy)hexyl)piperidin-4-yl)-1-oxoisoindolin-2-yl)piperidine-2,6-dione], on ERα, the “ERα Protein Degradation 1 nM” value is recorded as “A (a percentage degradation value of no less than 50%)”, the “ERα Protein Degradation 10 nM” value is “A (a percentage degradation value of no less than 50%)” and the “ERα Protein Degradation 100 nM” value is listed as “A (a percentage degradation value of no less than 50%)”. Further, the half-inhibitory concentration (IC50) in the assay on MCF7 cells was determined as 0.37 nM. Besides, in the assay on T47D cells, the IC50 was 0.22 nM.
With `Cc1c(-c2ccc(O)cc2)n(Cc2ccc(OCCCCN3CCN(C(=O)COc4ccc5c(N6CCC(=O)NC6=O)nn(C)c5c4)CC3)cc2)c2ccc(O)cc12` [Compound E16, 1-(6-(2-(4-(4-(4-((5-Hydroxy-2-(4-hydroxyphenyl)-3-methyl-1H-indol-1-yl)-methyl)phenoxy)butyl)piperazin-1-yl)-2-oxoethoxy)-1-methyl-1H-indazol-3-yl)dihydro-pyrimidine-2,4(1H,3H)-dione], at ERα, the “ERα Protein Degradation 1 nM” value is “C (a percentage degradation value of less than 25% and no less than 10%)”; the “ERα Protein Degradation 10 nM” value is “C (a percentage degradation value of less than 25% and no less than 10%)”; the “ERα Protein Degradation 100 nM” value is reported as “D (a percentage degradation value of less than 10%)”. Further, in the assay with MCF7 cells, the IC50 was determined as 1.8 nM. Moreover, the IC50 in the assay with T47D cells amounted to 1.3 nM.
For `CC1(Cc2ccc(OCCCCN3CCN(C(=O)COc4cccc(C5CCC(=O)NC5=O)c4)CC3)cc2)C(c2ccc(O)cc2)=Nc2ccc(O)cc21` (centres unmarked) [Compound D7, 3-(3-(2-(4-(4-(4-((5-Hydroxy-2-(4-hydroxyphenyl)-3-methyl-3H-indol-3-yl)-methyl)phenoxy)butyl)piperazin-1-yl)-2-oxoethoxy)phenyl)piperidine-2,6-dione], at ERα, the “ERα Protein Degradation 1 nM” value is “D (a percentage degradation value of less than 10%)”, the “ERα Protein Degradation 10 nM” value was “D (a percentage degradation value of less than 10%)” and the “ERα Protein Degradation 100 nM” value is reported as “D (a percentage degradation value of less than 10%)”. In addition, the IC50 in the assay on MCF7 cells amounted to 101 nM. In the assay on T47D cells, the IC50 was determined as 44 nM.
As for `Cc1c(-c2ccc(O)cc2)n(Cc2ccc(OCCCCN3CCN(C(=O)COc4cccc5c(C6CCC(=O)NC6=O)nn(C)c45)CC3)cc2)c2ccc(O)cc12` (centres unmarked) [Compound E7, 3-(7-(2-(4-(4-(4-((5-Hydroxy-2-(4-hydroxyphenyl)-3-methyl-1H-indol-1-yl)-methyl)phenoxy)butyl)piperazin-1-yl)-2-oxoethoxy)-1-methyl-1H-indazol-3-yl)piperidine-2,6-dione], on ERα, the “ERα Protein Degradation 1 nM” value was “B (a percentage degradation value of less than 50% and no less than 25%)”; the “ERα Protein Degradation 10 nM” value is reported as “A (a percentage degradation value of no less than 50%)”; the “ERα Protein Degradation 100 nM” value is given as “A (a percentage degradation value of no less than 50%)”. The half-inhibitory concentration (IC50) in the assay on MCF7 cells was found to be 1.1 nM. Moreover, the 50% inhibitory concentration (IC50) in the assay on T47D cells was found to be 0.64 nM.
`O=C1CCC(Nc2cccc(NC(=O)CN3CCN(CC4CCN(c5ccc([C@@H]6c7ccc(O)cc7CC[C@@H]6c6ccccc6)cc5)CC4)CC3)c2)C(=O)N1` (stereo partly drawn) [Compound B19, N-(3-((2,6-dioxopiperidin-3-yl)amino)phenyl)-2-(4-((1-(4-((1R,2S)-6-hydroxy-2-phenyl-1,2,3,4-tetrahydronaphthalen-1-yl)phenyl)piperidin-4-yl)methyl)piperazin-1-yl)-acetamide]: on ERα, the “ERα Protein Degradation 1 nM” value was “D (a percentage degradation value of less than 10%)”, the “ERα Protein Degradation 10 nM” value was “D (a percentage degradation value of less than 10%)” and the “ERα Protein Degradation 100 nM” value is “D (a percentage degradation value of less than 10%)”. In addition, in the assay on MCF7 cells, the IC50 worked out at 2.5 nM. The IC50 with T47D cells amounted to 0.96 nM.

Source of the values: patent US20240368121A1, “ESTROGEN RECEPTOR DEGRADERS, PHARMACEUTICAL COMPOSITIONS THEREOF, AND THEIR THERAPEUTIC APPLICATIONS” (BioTheryX, Inc., priority 2021, published 2024).
